Results reported in ChEMBL document CHEMBL1132808, “Solid-phase synthesis of di- and tripeptidic hydroxamic acids as inhibitors of procollagen C-proteinase” (Bioorg Med Chem Lett, 2000).
Values joined by “and” are separate entries in the source; they are usually repeats but may differ in a detail not shown here. Identical values can stand only once. Where a SMILES comes first, the peptide text is derived from it. [ ]: non-standard residue; d: D form. The star is where a group is joined. ξ: configuration not given here. ξW = NC(Cc1c[nH]c2ccccc12)C(=O)O; Cbz = O=C(OCc1ccccc1)*; ξT = CC(O)C(N)C(=O)O; NHOH = ON*

Target: T1, Bone morphogenetic protein 1 (Homo sapiens, UniProt P13497)
T1 sequence (P13497 whole entry): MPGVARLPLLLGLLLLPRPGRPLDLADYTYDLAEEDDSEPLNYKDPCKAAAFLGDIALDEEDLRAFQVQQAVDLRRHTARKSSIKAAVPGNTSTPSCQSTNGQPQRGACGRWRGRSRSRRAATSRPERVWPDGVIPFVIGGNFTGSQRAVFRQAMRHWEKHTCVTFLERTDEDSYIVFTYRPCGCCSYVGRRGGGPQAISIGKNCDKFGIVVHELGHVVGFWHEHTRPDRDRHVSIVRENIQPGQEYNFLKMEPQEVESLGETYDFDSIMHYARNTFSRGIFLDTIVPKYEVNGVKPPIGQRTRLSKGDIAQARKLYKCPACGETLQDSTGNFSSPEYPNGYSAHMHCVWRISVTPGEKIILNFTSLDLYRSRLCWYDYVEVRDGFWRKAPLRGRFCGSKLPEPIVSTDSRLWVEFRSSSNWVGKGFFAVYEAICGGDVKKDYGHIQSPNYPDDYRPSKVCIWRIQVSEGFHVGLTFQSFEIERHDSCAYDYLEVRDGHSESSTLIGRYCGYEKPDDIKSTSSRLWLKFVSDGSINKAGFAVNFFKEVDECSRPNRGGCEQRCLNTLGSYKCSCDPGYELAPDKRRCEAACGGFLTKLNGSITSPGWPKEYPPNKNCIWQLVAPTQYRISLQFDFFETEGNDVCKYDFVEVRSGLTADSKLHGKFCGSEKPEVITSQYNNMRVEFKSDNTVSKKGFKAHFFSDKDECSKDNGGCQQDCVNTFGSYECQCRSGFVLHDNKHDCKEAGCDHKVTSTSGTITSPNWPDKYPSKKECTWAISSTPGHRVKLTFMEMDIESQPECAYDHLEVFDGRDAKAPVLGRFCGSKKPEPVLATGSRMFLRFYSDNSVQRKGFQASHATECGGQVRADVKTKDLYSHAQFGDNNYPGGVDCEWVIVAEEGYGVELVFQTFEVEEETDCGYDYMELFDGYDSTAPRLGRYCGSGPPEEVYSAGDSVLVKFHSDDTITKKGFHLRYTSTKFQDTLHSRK
Assay: Inhibitory effect against Procollagen C-terminal proteinase

Compound | IC50
O=C(NC(Cc1c[nH]c2ccccc12)C(=O)NO)OCc1ccccc1 (stereo not given) | 67000 nM
CNC(=O)[C@H](CCC(N)=O)NC(=O)[C@H](CC(=O)O)CC(=O)NO | 68000 nM
CC[C@@H](C)[C@@H](NC(=O)OCc1ccccc1)C(=O)N[C@H](Cc1ccccn1)C(=O)NO | 220 nM
O=C(CCCNC(=O)OCc1ccccc1)N[C@@H](Cc1c[nH]c2ccccc12)C(=O)NO | 19000 nM
CC(=O)N[C@@H](Cc1ccc(O)cc1)C(=O)NCC(=O)NO | 280000 nM
CC[C@@H](C)[C@@H](NC(=O)OCc1ccccc1)C(=O)N[C@H](Cc1ccc(Br)cc1)C(=O)NO | 200 nM
CC(C)C(NC(=O)OCc1ccccc1)C(=O)N[C@H](Cc1c[nH]c2ccccc12)C(=O)NO (stereo not given in full) | 1900 nM
CC[C@@H](C)[C@@H](NC(=O)OCc1ccccc1)C(=O)NC(Cc1ccccc1Cl)C(=O)NO (stereo not given in full) | 190 nM
CCCC(NC(=O)OCc1ccccc1)C(=O)N[C@H](Cc1c[nH]c2ccccc12)C(=O)NO (stereo not given in full) | 870 nM
O=C(N[C@@H](Cc1ccccc1)C(=O)N[C@@H](Cc1c[nH]c2ccccc12)C(=O)NO)OCc1ccccc1 | 17000 nM
CC[C@@H](C)[C@H](NC(=O)C(Cc1c[nH]c2ccccc12)NC(=O)OCc1ccccc1)C(=O)N[C@@H](Cc1cscn1)C(=O)NO (stereo not given in full) | 67 nM
CC[C@H](C)[C@@H](NC(=O)Nc1ccccc1Cl)C(=O)N[C@H](Cc1cc2ccccc2[nH]1)C(=O)NO | 5000 nM
CC[C@@H](C)[C@@H](NC(=O)OCc1ccccc1)C(=O)N[C@H](Cc1cnc[nH]1)C(=O)NO | 250 nM
O=C(NC(C(=O)N[C@H](Cc1c[nH]c2ccccc12)C(=O)NO)c1ccccc1)OCc1ccccc1 (stereo not given in full) | 1200 nM
CC[C@@H](C)[C@H](NC(=O)C(COCc1ccccc1)NC(=O)OCc1ccccc1)C(=O)N[C@@H](Cc1cscn1)C(=O)NO (stereo not given in full) | 78 nM
CC[C@@H](C)[C@@H](NC(=O)OCc1ccccc1)C(=O)NCC(NC(=O)OCc1ccccc1)C(=O)NO (stereo not given in full) | 61 nM
CC[C@@H](C)[C@@H](NC(=O)OCc1ccccc1)C(=O)N[C@H](Cc1ccc(Br)s1)C(=O)NO | 210 nM

Compound | IC50
CNC(=O)C1CCCN1C(=O)[C@H](CCC(N)=O)NC(=O)[C@H](CC(=O)O)CC(=O)NO (stereo not given in full) | 22000 nM
O=C(N[C@H](Cc1ccc(O)cc1)C(=O)N[C@@H](Cc1c[nH]c2ccccc12)C(=O)NO)OCc1ccccc1 | 20000 nM
CC[C@@H](C)[C@@H](NC(=O)OCc1ccccc1)C(=O)NC(Cc1ccc(OC(C)(C)C)cc1)C(=O)NO (stereo not given in full) | 130 nM
CC[C@H](C)[C@@H](NC(=O)NCCc1ccccc1)C(=O)N[C@H](Cc1cc2ccccc2[nH]1)C(=O)NO | 3600 nM
CC[C@H](C)[C@@H](Nc1cccc(C(F)(F)F)c1)C(=O)N[C@H](Cc1cc2ccccc2[nH]1)C(=O)NO | 2800 nM
O=C(N[C@H](Cc1ccccc1)C(=O)N[C@@H](Cc1c[nH]c2ccccc12)C(=O)NO)OCc1ccccc1 | 18000 nM
CC[C@H](C)[C@@H](NC(=O)Nc1cc(Cl)cc(Cl)c1)C(=O)N[C@H](Cc1cc2ccccc2[nH]1)C(=O)NO | 5100 nM
CC[C@H](C)[C@@H](NC(=O)OCc1ccccc1)C(=O)N[C@H](Cc1c[nH]c2ccccc12)C(=O)NO | 730 nM
CC[C@H](C)[C@@H](NC(=O)Nc1ccccc1[N+](=O)[O-])C(=O)N[C@H](Cc1cc2ccccc2[nH]1)C(=O)NO | 2100 nM
CC[C@@H](C)[C@@H](NC(=O)OCc1ccccc1)C(=O)NCC(NCc1ccccc1)C(=O)NO (stereo not given in full) | 94 nM
O=C(O)CCC(NC(=O)OCc1ccccc1)C(=O)N[C@H](Cc1c[nH]c2ccccc12)C(=O)NO (stereo not given in full) | 3000 nM
CC[C@@H](C)[C@@H](NC(=O)OCc1ccccc1)C(=O)NC(Cc1ccc(-c2ccccc2)cc1)C(=O)NO (stereo not given in full) | 200 nM
CC[C@@H](C)[C@@H](NC(=O)OCc1ccccc1)C(=O)N[C@H](Cc1ccc([N+](=O)[O-])cc1)C(=O)NO | 200 nM and 220 nM
CC(=O)N[C@@H](CCCNC(=N)N)C(=O)N[C@@H](C)C(=O)NO (Ac-Arg-Ala-{NHOH}) | > 800000 nM
CC(=O)N[C@@H](Cc1ccc(O)cc1)C(=O)N[C@@H](Cc1ccc(O)cc1)C(=O)NCC(=O)NO (Ac-Tyr-Tyr-Gly-{NHOH}) | 65000 nM
CC(O)C(NC(=O)OCc1ccccc1)C(=O)N[C@@H](Cc1c[nH]c2ccccc12)C(=O)NO (stereo not given in full) (Cbz-[ξT]-Trp-{NHOH}) | 15000 nM
O=C(NC(Cc1c[nH]c2ccccc12)C(=O)N[C@@H](Cc1c[nH]c2ccccc12)C(=O)NO)OCc1ccccc1 (stereo not given in full) (Cbz-[ξW]-Trp-{NHOH}) | 19000 nM

Now from value to compound:

IC50 | Compound
53 nM | CC[C@@H](C)[C@@H](NCN(Cc1ccc(F)cc1)C(=O)c1cccc(Cl)c1)C(=O)N[C@H](Cc1cscn1)C(=O)NO
67 nM | CC[C@H](C)[C@H](NS(=O)(=O)c1cc(C)c(Cl)cc1C)C(=O)N[C@@H](CNC(=O)OCc1ccccc1)C(=O)NO
110 nM | CC[C@@H](C)[C@@H](NCN(Cc1ccc(F)cc1)C(=O)c1cccc(C)c1)C(=O)N[C@H](Cc1cscn1)C(=O)NO
26 nM | CC[C@H](C)[C@H](NS(=O)(=O)c1ccc(Br)c(Br)c1)C(=O)N[C@@H](CNC(=O)OCc1ccccc1)C(=O)NO
65 nM | CC[C@H](C)[C@H](NS(=O)(=O)c1cc(Cl)ccc1Cl)C(=O)N[C@@H](CNC(=O)OCc1ccccc1)C(=O)NO
43 nM | CC[C@@H](C)[C@@H](NS(=O)(=O)C1=CCC(C)(Cl)C=C1C)C(=O)N[C@H](Cc1cscn1)C(=O)NO (stereo not given in full)
32 nM | CC[C@H](C)[C@H](NS(=O)(=O)c1cc(Br)c(Br)s1)C(=O)NC(Cc1cscn1)C(=O)NO (stereo not given in full)
49 nM | CC[C@@H](C)[C@@H](NS(=O)(=O)c1cc(Cl)c(Cl)cc1Cl)C(=O)N[C@H](Cc1cscn1)C(=O)NO
89 nM | CC[C@@H](C)[C@@H](NCN(Cc1ccc(F)cc1)C(=O)c1ccc(Br)cc1)C(=O)N[C@H](Cc1cscn1)C(=O)NO
78 nM | CC[C@@H](C)[C@H](NC(=O)C(Cc1ccc(F)cc1)NC(=O)OCc1ccccc1)C(=O)N[C@@H](Cc1cscn1)C(=O)NO (stereo not given in full)
73 nM | CC[C@@H](C)[C@@H](NC(=O)OCc1ccc(Cl)c(Cl)c1)C(=O)N[C@H](Cc1cscn1)C(=O)NO
90 nM | CC[C@@H](C)[C@@H](NCN(Cc1ccc(F)cc1)C(=O)c1ccc(F)cc1)C(=O)N[C@H](Cc1cscn1)C(=O)NO
140 nM | CC[C@@H](C)[C@@H](NCN(Cc1ccc(F)cc1)C(=O)c1ccc(C(C)(C)C)cc1)C(=O)N[C@H](Cc1cscn1)C(=O)NO
30 nM | CC[C@@H](C)[C@@H](NS(=O)(=O)c1ccc(Br)c(Br)c1)C(=O)N[C@H](Cc1cscn1)C(=O)NO
52 nM | CC[C@H](C)[C@H](NS(=O)(=O)c1cc(Br)c(Br)s1)C(=O)N[C@@H](CNC(=O)OCc1ccccc1)C(=O)NO
43 nM | CC[C@@H](C)[C@H](NC(=O)C(CCSC)NC(=O)OCc1ccccc1)C(=O)N[C@@H](Cc1cscn1)C(=O)NO (stereo not given in full)
29 nM | CC[C@@H](C)[C@@H](NS(=O)(=O)c1cc(Cl)ccc1Cl)C(=O)N[C@H](Cc1cscn1)C(=O)NO
150 nM | CC[C@@H](C)[C@@H](NC(=O)OCc1cc(Cl)cc(Cl)c1)C(=O)N[C@H](Cc1cscn1)C(=O)NO
90 nM | CC[C@@H](C)[C@@H](NC(=O)OCc1cccc(C(F)(F)F)c1)C(=O)N[C@H](Cc1cscn1)C(=O)NO
110 nM | CC[C@@H](C)[C@H](NC(=O)C(CC(C)C)NC(=O)OCc1ccccc1)C(=O)N[C@@H](Cc1cscn1)C(=O)NO (stereo not given in full)
750 nM | CC[C@H](C)[C@@H](Nc1ccc(Cl)c(Cl)c1)C(=O)N[C@H](Cc1cc2ccccc2[nH]1)C(=O)NO
78 nM | CC[C@@H](C)[C@@H](NC(=O)OCc1ccccc1Br)C(=O)N[C@H](Cc1cscn1)C(=O)NO
50 nM | CC[C@@H](C)[C@@H](NCN(Cc1ccc(F)cc1)C(=O)c1ccc(Cl)cc1)C(=O)N[C@H](Cc1cscn1)C(=O)NO
44 nM | CC[C@@H](C)[C@H](NC(=O)C(Cc1ccccc1)NC(=O)OCc1ccccc1)C(=O)N[C@@H](Cc1cscn1)C(=O)NO (stereo not given in full)
110 nM | CC[C@@H](C)[C@@H](NC(=O)OCc1ccccc1)C(=O)N[C@H](Cc1cscn1)C(=O)NO (stereo in doubt; form 1)
110 nM | CC[C@@H](C)[C@@H](NC(=O)OCc1ccccc1)C(=O)N[C@H](Cc1cscn1)C(=O)NO (stereo in doubt; form 2)
